The values below come from ChEMBL document CHEMBL1914315, “Fijimycins A-C, three antibacterial etamycin-class depsipeptides from a marine-derived Streptomyces sp” (2011).

Values after ≈ are worked out from the molar mass of the structure shown.

What all share (type): functional
Assay [1] concerns Staphylococcus aureus. The assay is described as follows: Antimicrobial activity against methicillin-resistant Staphylococcus aureus ATCC 33591. Particulars: read-out: MIC100.
The test system of assay [2] is Staphylococcus aureus. The assay is described as follows: Antimicrobial activity against methicillin-resistant Staphylococcus aureus UAMS 1182. Particulars: read-out: MIC100.
Assay [3] relates to Staphylococcus aureus. The assay is described as follows: Antimicrobial activity against methicillin-resistant Staphylococcus aureus Sanger 252. Particulars: Sanger 252, read-out: MIC100.

With `CC(C)C[C@H]1NC(=O)[C@@H](NC(=O)c2ncccc2O)[C@@H](C)OC(=O)[C@@H](c2ccccc2)N(C)C(=O)[C@H](C)NC(=O)[C@H](C(C)C(C)C)N(C)C(=O)CN(C)C(=O)[C@H]2C[C@@H](O)CN2C1=O` (stereo not given in full) [FIJIMYCIN A], the values for the MIC in the assay on Staphylococcus aureus [1], in the assay with Staphylococcus aureus [2] and with Staphylococcus aureus [3] were 16 µg/mL (≈ 18.2 µM), 4 µg/mL (≈ 4.55 µM) and 32 µg/mL (≈ 36.4 µM), respectively.

In the case of `CC(C)C[C@H]1NC(=O)[C@@H](NC(=O)c2ncccc2O)[C@@H](C)OC(=O)[C@H](CC(C)C)N(C)C(=O)[C@H](C)NC(=O)[C@H](C(C)C(C)C)N(C)C(=O)CN(C)C(=O)[C@H]2C[C@@H](O)CN2C1=O` (stereo not given in full) [FIJIMYCIN B], the MIC with Staphylococcus aureus [1] and in the assay on Staphylococcus aureus [2] was > 32 µg/mL in each case.

Turning to `CC(C)C[C@H]1NC(=O)[C@@H](NC(=O)c2ncccc2O)[C@@H](C)OC(=O)[C@H](c2ccccc2)N(C)C(=O)[C@H](CO)NC(=O)[C@H](C(C)C(C)C)N(C)C(=O)CN(C)C(=O)[C@H]2C[C@@H](O)CN2C1=O` (stereo not given in full) [FIJIMYCIN C], the MIC in the assay on Staphylococcus aureus [1] came out at 32 µg/mL (≈ 35.8 µM); in the assay on Staphylococcus aureus [2], 8 µg/mL (≈ 8.94 µM).

As to `CC(C)C[C@H]1NC(=O)[C@@H](NC(=O)c2ncccc2O)[C@@H](C)OC(=O)[C@H](c2ccccc2)N(C)C(=O)[C@H](C)NC(=O)[C@H](C(C)C(C)C)N(C)C(=O)CN(C)C(=O)[C@H]2C[C@@H](O)CN2C1=O` (stereo not given in full) [VIRIFOGRISEIN I], the MIC in the assay with Staphylococcus aureus [1] stood at 16 µg/mL (≈ 18.2 µM); with Staphylococcus aureus [2], 4 µg/mL (≈ 4.55 µM); in the assay on Staphylococcus aureus [3], 16 µg/mL (≈ 18.2 µM).
